Experimental data reported in patent US5714476A, “Process for preparing compositions containing neotrehalose” (Kabushiki Kaisha Hayashibara Seibutsu Kagaku Kenkyujo, priority 1990, dated 1998).

Columns and labels:
α-glucosidase = assay: Action of α-glucosidase; format: biochemical
Text: (§1) The physicochemical properties of neotrehalose were studied with a high-purity crystalline neotrehalose specimen prepared by the method in Experiment 2-1.

trehalase = assay: Hydrolysis by trehalase; format: biochemical
Text: as §1

[1] = Hygroscopicity and deliquescence; format: physicochemical; settings: crystal
Text: as §1

[2] = Solubility in water at 25° C.; format: physicochemical; settings: crystal in the form of anhydride, in 100 g water at 25° C.
Text: as §1

7 week-old dd mice = assay: Acute toxicity, oral, mice; format: in vivo
Text: A crystalline neotrehalose specimen, prepared by the method in Experiment 2-1, was orally administered to 7 week-old dd mice for acute toxicity test.

[3] = Acidity of aqueous solution; format: physicochemical
Text: as §1

Solubility in solvents = format: physicochemical
Text: as §1

[4] = Digestion test: oral load test, blood sugar and insulin levels; format: in vivo; settings: healthy volunteers
Text: In accordance with the method described in H. Atsuji et al., Journal of Clinical Nutrition, Vol.41, Vol.2, pp.200-208 (1972), the load test by orally-administering to healthy volunteers a crystalline neotrehalose specimen prepared by the method in Experiment 2-1 was done, and their blood was sampled at prescribed time intervals and subjected to the measurements of the blood sugar and insulin levels. As control, glucose was used.

β-glucosidase = assay: Action of β-glucosidase; format: biochemical
Heat of dissolution = format: physicochemical; settings: crystal
Text: The physicochemical properties of lactoneotrehalose were studied with a high-purity crystalline lactoneotrehalose specimen prepared by the method in Experiment 1-1.

β-galactosidase = assay: Action of β-galactosidase; format: biochemical

OC[C@H]1O[C@@H](O[C@H]2O[C@H](CO)[C@@H](O)[C@H](O)[C@H]2O)[C@H](O)[C@@H](O)[C@@H]1O [neotrehalose, O-α-D-glucopyranosyl β-D-glucopyranoside]
product formed by the action of α-glucosidase (α-glucosidase): D-glucose is formed | hydrolysis by trehalase (trehalase): not hydrolyzed by trehalase | hygroscopicity and deliquescence [1]: Free of hygroscopicity and deliquescence | Solubility [2]: Fifty-five | toxicity (7 week-old dd mice): extremely low | animal death (7 week-old dd mice; up to 5 g of the specimen, higher dose was difficult to do): no animal death was noted | acidity of an aqueous solution of the crystal [3]: neutral or slight acidity | Solubility in solvents (Solubility in solvents; 0.1N hydrochloric acid): Readily soluble | Solubility in solvents (Solubility in solvents; 0.1N sodium hydroxide): Readily soluble | Solubility in solvents (Solubility in solvents; chloroform): insoluble | Solubility in solvents (Solubility in solvents; ethanol): scarcely soluble | Solubility in solvents (Solubility in solvents; ethyl acetate): insoluble | Solubility in solvents (Solubility in solvents; methanol): scarcely soluble | Solubility in solvents (Solubility in solvents; water): Readily soluble | digestion, absorption, metabolism and utilization [4]: readily digested, absorbed, metabolized and utilized into energy | time of maximum level of blood sugar after the administration [4]: 0.5 to 1 h | time of maximum level of insulin after the administration [4]: 0.5 to 1 h | blood sugar and insulin behaviour compared with glucose ([4]; control glucose): behaved similarly as to glucose

OC[C@H]1O[C@@H](O[C@H]2[C@H](O)[C@@H](O)[C@H](O[C@H]3O[C@H](CO)[C@@H](O)[C@H](O)[C@H]3O)O[C@@H]2CO)[C@H](O)[C@@H](O)[C@H]1O [lactoneotrehalose, O-β-D-galactopyranosyl-(1→4)-O-β-D-glucopyranosyl α-D-glucopyranoside]
hygroscopicity and deliquescence [1]: Free of hygroscopicity and deliquescence | products formed by the action of β-glucosidase (β-glucosidase): D-glucose and lactose are formed | Heat of dissolution (Heat of dissolution): 20.0 cal/g | acidity of an aqueous solution of the crystal [3]: neutral or slight acidity | products formed by the action of β-galactosidase (β-galactosidase): D-galactose and neotrehalose are formed
